Tests used:
[1] = biological target: human Gal-3 (hGal-3) (Homo sapiens (Human), UniProt P17931); assay: Competitive binding assay: biotinylated hGal-3 to microplate-adsorbed asialofetuin (ASF); conditions: Activity on hGal-3; binding to ASF-coated plates, 3 hours at 4° C.; mean values
Method in brief: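 Biotinylated hGal-3 (300-1000 ng/mL) binding to plate-adsorbed asialofetuin, with DMSO-diluted compound added, incubated 3 h at 4 °C. After washing, bound protein detected with streptavidin-peroxidase (80 ng/mL, 1 h, 4 °C) and ABTS substrate, read spectrophotometrically. IC50 given as mean of several measurements.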

[2] = biological target: human Gal-1 (hGal-1) (Homo sapiens, UniProt P09382); assay: Competitive binding assay: biotinylated hGal-1 to microplate-adsorbed asialofetuin (ASF); conditions: Activities on hGal-1; binding to ASF-coated plates, 3 hours at 4° C.; mean values; read-out: Gal-1 IC50
Sequence of human Gal-1 (hGal-1) (P09382 2-135 limits assumed): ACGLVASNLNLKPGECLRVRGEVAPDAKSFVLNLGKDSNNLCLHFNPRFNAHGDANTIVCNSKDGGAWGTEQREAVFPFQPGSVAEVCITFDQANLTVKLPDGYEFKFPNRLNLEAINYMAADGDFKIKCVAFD
Method in brief: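 Plate-adsorbed asialofetuin is incubated 3 h at 4 °C with biotinylated hGal-1, optionally its all-serine-substituted cysteine variant, plus compound dilutions. ABTS color after 1 h streptavidin-peroxidase (80 ng/mL) at 4 °C reports binding. Reported IC50 is a mean across repeat runs.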

Sequence of human Gal-3 (hGal-3) (P17931 whole entry): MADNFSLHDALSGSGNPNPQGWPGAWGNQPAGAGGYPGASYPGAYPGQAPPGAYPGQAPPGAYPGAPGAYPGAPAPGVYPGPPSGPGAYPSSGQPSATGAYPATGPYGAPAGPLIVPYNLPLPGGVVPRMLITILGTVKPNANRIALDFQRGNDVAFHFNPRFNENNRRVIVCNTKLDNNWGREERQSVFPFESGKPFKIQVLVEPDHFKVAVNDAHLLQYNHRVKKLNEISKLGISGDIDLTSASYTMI

| IC50 [1] [µM] | IC50 [2] [µM] | Compound |
| --- | --- | --- |
| 0.45 | 3.6 | CO[C@@H]1[C@@H](n2cc(-c3cc(F)c(F)c(F)c3)nn2)[C@@H](O)[C@@H](CO)O[C@@H]1CC1=NO[C@]2(CC[C@@H](NC(C)=O)CC2)C1 [Example 2.05, N-((5s,8S)-3-(((2R,3R,4S,5R,6R)-5-hydroxy-6-(hydroxymethyl)-3-methoxy-4-(4-(3,4,5-trifluorophenyl)-1H-1,2,3-triazol-1-yl)tetrahydro-2H-pyran-2-yl)methyl)-1-oxa-2-azaspiro[4.5]dec-2-en-8-yl)acetamide] |
| 0.7 | 5.1 | CO[C@@H]1[C@@H](n2cc(-c3cc(F)c(F)c(F)c3)nn2)[C@@H](O)[C@@H](CO)O[C@@H]1CC1=NO[C@]2(CC[C@@H](O)CC2)C1 [Example 2.02, (5s,8S)-3-(((2R,3R,4S,5R,6R)-5-hydroxy-6-(hydroxymethyl)-3-methoxy-4-(4-(3,4,5-trifluorophenyl)-1H-1,2,3-triazol-1-yl)tetrahydro-2H-pyran-2-yl)methyl)-1-oxa-2-azaspiro[4.5]dec-2-en-8-ol] |
| 0.09 | 3.5 | O=C(O)CO[C@@H]1[C@@H](n2cc(-c3cc(F)c(F)c(F)c3)nn2)[C@@H](O)[C@@H](CO)O[C@@H]1CC1=NOC2(CCCCC2)C1 [Example 2.26, 2-(((2R,3R,4S,5R,6R)-2-((1-oxa-2-azaspiro[4.5]dec-2-en-3-yl)methyl)-5-hydroxy-6-(hydroxymethyl)-4-(4-(3,4,5-trifluorophenyl)-1H-1,2,3-triazol-1-yl)tetrahydro-2H-pyran-3-yl)oxy)acetic acid] |
| 0.081 | 11.5 | (2R,3R,4S,5R,6R)-6-((8,8-difluoro-1-oxa-2-azaspiro[4.5]dec-2-en-3-yl)methyl)-4-(4-(2,3-difluoro-4-methylphenyl)-1H-1,2,3-triazol-1-yl)-2-(hydroxymethyl)-5-methoxytetrahydro-2H-pyran-3-ol [Example 2.27] |
| 0.4 | 4.4 | CO[C@@H]1[C@@H](n2cc(-c3ccc(Cl)c(F)c3F)nn2)[C@@H](O)[C@@H](CO)O[C@@H]1CC1=NOC2(CCC(C(C)(C)O)CC2)C1 (stereo partly drawn) [Example 1.55, (2R,3R,4S,5R,6R)-4-(4-(4-chloro-2,3-difluorophenyl)-1H-1,2,3-triazol-1-yl)-2-(hydroxymethyl)-6-((8-(2-hydroxypropan-2-yl)-1-oxa-2-azaspiro[4.5]dec-2-en-3-yl)methyl)-5-methoxytetrahydro-2H-pyran-3-ol] |
| 0.11 | 1.2 | CO[C@@H]1[C@@H](n2cc(-c3ccc(Cl)c(F)c3F)nn2)[C@@H](O)[C@@H](CO)O[C@@H]1CC1=NOC2(CCC(C#N)CC2)C1 (stereo partly drawn) [Example 1.49, 3-(((2R,3R,4S,5R,6R)-4-(4-(4-chloro-2,3-difluorophenyl)-1H-1,2,3-triazol-1-yl)-5-hydroxy-6-(hydroxymethyl)-3-methoxytetrahydro-2H-pyran-2-yl)methyl)-1-oxa-2-azaspiro[4.5]dec-2-ene-8-carbonitrile] |
| 1.1 | 18.8 | CO[C@@H]1[C@@H](n2cc(-c3cc(F)c(F)c(F)c3)nn2)[C@@H](O)[C@@H](CO)O[C@@H]1CC1=NO[C@]2(CC[C@H](C(C)C)CC2)C1 [Example 1.27, (2R,3R,4S,5R,6R)-2-(hydroxymethyl)-6-(((5r,8R)-8-isopropyl-1-oxa-2-azaspiro[4.5]dec-2-en-3-yl)methyl)-5-methoxy-4-(4-(3,4,5-trifluorophenyl)-1H-1,2,3-triazol-1-yl)tetrahydro-2H-pyran-3-ol] |
| 0.28 | 7.2 | CO[C@@H]1[C@@H](n2cc(-c3cc(F)c(F)c(F)c3)nn2)[C@@H](O)[C@@H](CO)O[C@@H]1CC1=NOC2(CCC(NCC(F)F)CC2)C1 (stereo partly drawn) [Example 2.15, (2R,3R,4S,5R,6R)-6-((8-((2,2-difluoroethyl)amino)-1-oxa-2-azaspiro[4.5]dec-2-en-3-yl)methyl)-2-(hydroxymethyl)-5-methoxy-4-(4-(3,4,5-trifluorophenyl)-1H-1,2,3-triazol-1-yl)tetrahydro-2H-pyran-3-ol] |
| 0.17 | 10.4 | Cc1ccc(-c2cn([C@H]3[C@@H](O)[C@@H](CO)O[C@H](CC4=NOC5(CCC(F)(F)CC5)C4)[C@@H]3O)nn2)c(F)c1F [Example 1.04, (2R,3R,4R,5R,6R)-2-((8,8-difluoro-1-oxa-2-azaspiro[4.5]dec-2-en-3-yl)methyl)-4-(4-(2,3-difluoro-4-methylphenyl)-1H-1,2,3-triazol-1-yl)-6-(hydroxymethyl)tetrahydro-2H-pyran-3,5-diol] |
| 0.16 | 6.4 | CO[C@@H]1[C@@H](n2cc(-c3cc(F)c(F)c(F)c3)nn2)[C@@H](O)[C@@H](CO)O[C@@H]1CC1=NOC2(CCCCCC2)C1 [Example 1.38, (2R,3R,4S,5R,6R)-6-((1-oxa-2-azaspiro[4.6]undec-2-en-3-yl)methyl)-2-(hydroxymethyl)-5-methoxy-4-(4-(3,4,5-trifluorophenyl)-1H-1,2,3-triazol-1-yl)tetrahydro-2H-pyran-3-ol] |
| 0.2 | 2.9 | O=C(CO[C@@H]1[C@@H](n2cc(-c3cc(F)c(F)c(F)c3)nn2)[C@@H](O)[C@@H](CO)O[C@@H]1CC1=NOC2(CCCCC2)C1)N1CCOCC1 [Example 1.71, 2-(((2R,3R,4S,5R,6R)-2-((1-oxa-2-azaspiro[4.5]dec-2-en-3-yl)methyl)-5-hydroxy-6-(hydroxymethyl)-4-(4-(3,4,5-trifluorophenyl)-1H-1,2,3-triazol-1-yl)tetrahydro-2H-pyran-3-yl)oxy)-1-morpholinoethan-1-one] |
| 0.12 | 5.3 | CO[C@@H]1[C@@H](n2cc(-c3ccc(C)c(F)c3)nn2)[C@@H](O)[C@@H](CO)O[C@@H]1CC1=NOC2(CCCCC2)C1 [Example 1.20, (2R,3R,4S,5R,6R)-6-((1-oxa-2-azaspiro[4.5]dec-2-en-3-yl)methyl)-4-(4-(3-fluoro-4-methylphenyl)-1H-1,2,3-triazol-1-yl)-2-(hydroxymethyl)-5-methoxytetrahydro-2H-pyran-3-ol] |
| 0.06 | 1.8 | CO[C@@H]1[C@@H](n2cc(-c3ccc(Cl)c(F)c3F)nn2)[C@@H](O)[C@@H](CO)O[C@@H]1CC1=NO[C@]2(CC[C@@H](NC(=O)OC(C)(C)C)CC2)C1 [Example 1.46, tert-butyl ((5s,8S)-3-(((2R,3R,4S,5R,6R)-4-(4-(4-chloro-2,3-difluorophenyl)-1H-1,2,3-triazol-1-yl)-5-hydroxy-6-(hydroxymethyl)-3-methoxytetrahydro-2H-pyran-2-yl)methyl)-1-oxa-2-azaspiro[4.5]dec-2-en-8-yl)carbamate] |
| 0.089 | 2 | CO[C@@H]1[C@@H](n2cc(-c3cc(F)c(F)c(F)c3)nn2)[C@@H](O)[C@@H](CO)O[C@@H]1CC1=NO[C@]2(CC[C@H](C#N)CC2)C1 [Example 1.40, (5r,8R)-3-(((2R,3R,4S,5R,6R)-5-hydroxy-6-(hydroxymethyl)-3-methoxy-4-(4-(3,4,5-trifluorophenyl)-1H-1,2,3-triazol-1-yl)tetrahydro-2H-pyran-2-yl)methyl)-1-oxa-2-azaspiro[4.5]dec-2-ene-8-carbonitrile] |
